Experimental data published in BindingDB's records for doi:10.1021/jm00102a002 (Bristol-Myers Squibb, 1993).

How the values were obtained:
[1] = target: D(2) dopamine receptor (Rattus norvegicus, UniProt P61169); experiment: ChEBML_61741
From the text: Inhibitory concentration against radioligand [3H]spiperone binding to rat striatal Dopamine receptor D2

[2] = target: Serotonin 2 (5-HT2) receptor (Rattus norvegicus, UniProt P08909+P14842+P30994); experiment: ChEBML_1935
From the text: Inhibitory concentration against radioligand [3H]spiperone binding to 5-hydroxytryptamine 2 receptor in rat cortex

Chain of D(2) dopamine receptor (P61169 whole entry): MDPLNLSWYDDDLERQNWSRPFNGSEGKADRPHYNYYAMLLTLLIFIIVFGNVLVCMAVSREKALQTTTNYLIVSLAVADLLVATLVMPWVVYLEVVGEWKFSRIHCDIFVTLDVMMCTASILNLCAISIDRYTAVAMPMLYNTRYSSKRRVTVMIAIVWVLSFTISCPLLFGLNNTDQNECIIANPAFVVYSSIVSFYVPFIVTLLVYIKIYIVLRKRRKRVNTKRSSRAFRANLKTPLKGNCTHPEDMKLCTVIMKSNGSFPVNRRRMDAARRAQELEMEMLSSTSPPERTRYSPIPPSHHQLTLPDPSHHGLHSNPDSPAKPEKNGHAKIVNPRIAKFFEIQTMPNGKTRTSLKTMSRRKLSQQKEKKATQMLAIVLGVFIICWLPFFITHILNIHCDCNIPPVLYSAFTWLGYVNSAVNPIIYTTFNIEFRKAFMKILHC
Chain of Serotonin 2 (5-HT2) receptor (P14842 whole entry): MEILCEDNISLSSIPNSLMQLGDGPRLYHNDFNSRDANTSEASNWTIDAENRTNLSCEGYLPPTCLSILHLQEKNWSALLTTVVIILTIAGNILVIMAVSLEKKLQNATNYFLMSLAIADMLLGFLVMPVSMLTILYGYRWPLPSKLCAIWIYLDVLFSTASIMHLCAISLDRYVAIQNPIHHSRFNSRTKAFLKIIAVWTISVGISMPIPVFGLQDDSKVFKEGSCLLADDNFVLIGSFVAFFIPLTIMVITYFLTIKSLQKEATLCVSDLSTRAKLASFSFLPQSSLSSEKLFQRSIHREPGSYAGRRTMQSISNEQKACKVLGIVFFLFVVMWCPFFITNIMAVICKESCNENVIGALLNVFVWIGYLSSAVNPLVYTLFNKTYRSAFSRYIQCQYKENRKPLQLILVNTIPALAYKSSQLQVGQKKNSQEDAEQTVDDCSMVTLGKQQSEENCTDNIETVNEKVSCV
Chain of Serotonin 2 (5-HT2) receptor (P08909 whole entry): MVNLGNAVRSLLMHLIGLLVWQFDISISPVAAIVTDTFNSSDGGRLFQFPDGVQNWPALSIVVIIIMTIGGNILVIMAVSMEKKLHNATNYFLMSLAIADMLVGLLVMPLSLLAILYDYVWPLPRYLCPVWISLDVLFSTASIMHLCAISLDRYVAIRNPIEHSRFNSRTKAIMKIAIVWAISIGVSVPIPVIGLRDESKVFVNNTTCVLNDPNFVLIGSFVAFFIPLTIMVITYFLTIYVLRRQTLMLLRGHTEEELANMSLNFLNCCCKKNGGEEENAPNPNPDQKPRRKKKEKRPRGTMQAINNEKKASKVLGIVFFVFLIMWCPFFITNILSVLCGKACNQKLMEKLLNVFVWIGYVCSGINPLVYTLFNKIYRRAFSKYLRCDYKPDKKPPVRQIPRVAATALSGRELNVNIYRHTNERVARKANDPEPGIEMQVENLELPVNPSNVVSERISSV
Chain of Serotonin 2 (5-HT2) receptor (P30994 whole entry): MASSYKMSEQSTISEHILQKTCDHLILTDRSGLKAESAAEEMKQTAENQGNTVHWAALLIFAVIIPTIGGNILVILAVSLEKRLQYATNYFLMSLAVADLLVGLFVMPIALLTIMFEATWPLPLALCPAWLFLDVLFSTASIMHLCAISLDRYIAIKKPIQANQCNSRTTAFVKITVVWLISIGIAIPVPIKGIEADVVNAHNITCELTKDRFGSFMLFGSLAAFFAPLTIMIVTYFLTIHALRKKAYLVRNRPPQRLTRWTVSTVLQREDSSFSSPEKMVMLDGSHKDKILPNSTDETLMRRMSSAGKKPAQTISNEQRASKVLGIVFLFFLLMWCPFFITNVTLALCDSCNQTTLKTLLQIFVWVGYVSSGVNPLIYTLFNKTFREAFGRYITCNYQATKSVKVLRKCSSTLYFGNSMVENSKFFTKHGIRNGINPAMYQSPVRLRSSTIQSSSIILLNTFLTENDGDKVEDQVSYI

IC50 [1]: 6.43 µM
IC50 [2]: 1.7 µM
Structure (SMILES): OC(CCCN1CCN(c2ncc(F)cn2)CC1)c1ccc(F)cc1 (configuration not stated) [1-(4-fluorophenyl)-4-(4-(5-fluoropyrimidin-2-yl)piperazin-1-yl)butan-1-ol]
